Experimental findings from patent US12644889B2, “Viral condensates and methods of use thereof” (Whitehead Institute for Biomedical Research, priority 2020, dated 2026) are described below.

In this experiment the target is T1, SARS-CoV-2 nucleocapsid condensates (Severe acute respiratory syndrome coronavirus 2, UniProt P0DTC9).
T1 construct: Streptavidin tag (so in the source); made in house; host or cells: HEK cells
Description: drug partitioning assay in nucleocapsid condensates (confocal fluorescence microscopy). The note with it: in vitro condensates not containing DNA; 10 uM nucleocapsid, 10% PEG, 1-50 uM drug.

The structures appear in SMILES notation.

For `O=C1c2c(O)ccc(O)c2C(=O)c2c(NCCNCCO)ccc(NCCNCCO)c21` [mitoxantrone], the “partitioning of drug into nucleocapsid condensates” value is listed as “partitions into SARS-CoV-2 nucleocapsid condensates not containing DNA”.
